Data: ChEMBL document CHEMBL2062415, “Steroids from Commiphora mukul display antiproliferative effect against human prostate cancer PC3 cells via induction of apoptosis” (Bioorg Med Chem Lett, 2012)

Key:
PC-3 [1] = test: Cytotoxicity against human PC3 cells after 24 hrs by MTT assay; assay type: functional, cell-based; details: PC-3, 24 h
DU-145 = test: Cytotoxicity against human DU145 cells after 24 hrs by MTT assay; assay type: functional, cell-based; details: DU-145, 24 h
K562 [2] = test: Cytotoxicity against human K562 cells after 24 hrs by MTT assay; assay type: functional, cell-based; details: K562, 24 h
MCF7 [3] = test: Cytotoxicity against human MCF7 cells after 24 hrs by MTT assay; assay type: functional, cell-based; details: MCF7, 24 h
PC-3 [4] = test: Cytotoxicity against human PC3 cells assessed as cell viability at 10 uM after 24 hrs by MTT assay; assay type: functional; details: PC-3, 24 h, read-out: Activity
K562 [5] = test: Cytotoxicity against human K562 cells assessed as cell viability at 10 uM after 24 hrs by MTT assay; assay type: functional; details: K562, 24 h, read-out: Activity
MCF7 [6] = test: Cytotoxicity against human MCF7 cells assessed as cell viability at 10 uM after 24 hrs by MTT assay; assay type: functional; details: MCF7, 24 h, read-out: Activity
PC-3 [7] = test: Induction of apoptosis in human PC3 cells assessed as early apoptotic cells at 10 uM after 48 hrs by annexinV/propidium iodide staining-based FITC analysis relative to control; assay type: functional
PC-3 [8] = test: Induction of apoptosis in human PC3 cells assessed as late apoptotic cells at 10 uM after 48 hrs by annexinV/propidium iodide staining-based FITC analysis relative to control; assay type: functional
PC-3 [9] = test: Induction of apoptosis in human PC3 cells assessed as necrotic cells at 10 uM after 48 hrs by annexinV/propidium iodide staining-based FITC analysis relative to control; assay type: functional
PC-3 [10] = test: Induction of apoptosis in human PC3 cells assessed as early apoptotic cells at 20 uM after 48 hrs by annexinV/propidium iodide staining-based FITC analysis relative to control; assay type: functional
PC-3 [11] = test: Induction of apoptosis in human PC3 cells assessed as late apoptotic cells at 20 uM after 48 hrs by annexinV/propidium iodide staining-based FITC analysis relative to control; assay type: functional
PC-3 [12] = test: Induction of apoptosis in human PC3 cells assessed as necrotic cells at 20 uM after 48 hrs by annexinV/propidium iodide staining-based FITC analysis relative to control; assay type: functional
PC-3 [13] = test: Induction of apoptosis in human PC3 cells assessed as early apoptotic cells at 40 uM after 48 hrs by annexinV/propidium iodide staining-based FITC analysis relative to control; assay type: functional
PC-3 [14] = test: Induction of apoptosis in human PC3 cells assessed as late apoptotic cells at 40 uM after 48 hrs by annexinV/propidium iodide staining-based FITC analysis relative to control; assay type: functional
PC-3 [15] = test: Induction of apoptosis in human PC3 cells assessed as necrotic cells at 40 uM after 48 hrs by annexinV/propidium iodide staining-based FITC analysis relative to control; assay type: functional
PC-3 [16] = test: Cell cycle arrest in human PC3 cells assessed as accumulation at G0/G1 phase at 10 uM after 48 hrs by propidium iodide staining-based flow cytometric analysis relative to control; assay type: functional
PC-3 [17] = test: Cell cycle arrest in human PC3 cells assessed as accumulation at S phase at 10 uM after 48 hrs by propidium iodide staining-based flow cytometric analysis relative to control; assay type: functional
PC-3 [18] = test: Cell cycle arrest in human PC3 cells assessed as accumulation at G2/M phase at 10 uM after 48 hrs by propidium iodide staining-based flow cytometric analysis relative to control; assay type: functional
PC-3 [19] = test: Cell cycle arrest in human PC3 cells assessed as accumulation at G0/G1 phase at 20 uM after 48 hrs by propidium iodide staining-based flow cytometric analysis relative to control; assay type: functional
PC-3 [20] = test: Cell cycle arrest in human PC3 cells assessed as accumulation at S phase at 20 uM after 48 hrs by propidium iodide staining-based flow cytometric analysis relative to control; assay type: functional
PC-3 [21] = test: Cell cycle arrest in human PC3 cells assessed as accumulation at G2/M phase at 20 uM after 48 hrs by propidium iodide staining-based flow cytometric analysis relative to control; assay type: functional
PC-3 [22] = test: Cell cycle arrest in human PC3 cells assessed as accumulation at G0/G1 phase at 40 uM after 48 hrs by propidium iodide staining-based flow cytometric analysis relative to control; assay type: functional
PC-3 [23] = test: Cell cycle arrest in human PC3 cells assessed as accumulation at S phase at 40 uM after 48 hrs by propidium iodide staining-based flow cytometric analysis relative to control; assay type: functional
PC-3 [24] = test: Cell cycle arrest in human PC3 cells assessed as accumulation at G2/M phase at 40 uM after 48 hrs by propidium iodide staining-based flow cytometric analysis relative to control; assay type: functional
PC-3 [25] = test: Induction of apoptosis in human PC3 cells assessed as early apoptotic cells at 30 uM after 48 hrs by annexinV/propidium iodide staining-based FITC analysis relative to control; assay type: functional
PC-3 [26] = test: Induction of apoptosis in human PC3 cells assessed as late apoptotic cells at 30 uM after 48 hrs by annexinV/propidium iodide staining-based FITC analysis relative to control; assay type: functional
PC-3 [27] = test: Induction of apoptosis in human PC3 cells assessed as necrotic cells at 30 uM after 48 hrs by annexinV/propidium iodide staining-based FITC analysis relative to control; assay type: functional
PC-3 [28] = test: Cell cycle arrest in human PC3 cells assessed as accumulation at G0/G1 phase after 48 hrs by propidium iodide staining-based flow cytometric analysis; assay type: functional
PC-3 [29] = test: Cell cycle arrest in human PC3 cells assessed as accumulation at G0/G1 phase at 30 uM after 48 hrs by propidium iodide staining-based flow cytometric analysis relative to control; assay type: functional
PC-3 [30] = test: Cell cycle arrest in human PC3 cells assessed as accumulation at S phase at 30 uM after 48 hrs by propidium iodide staining-based flow cytometric analysis relative to control; assay type: functional
PC-3 [31] = test: Cell cycle arrest in human PC3 cells assessed as accumulation at G2/M phase at 30 uM after 48 hrs by propidium iodide staining-based flow cytometric analysis relative to control; assay type: functional

Compound | IC50 (PC-3 [1]) [µM] | IC50 (DU-145) [µM] | IC50 (K562 [2]) [µM] | IC50 (MCF7 [3]) [µM] | viability at 10 µM (PC-3 [4]) [%] | viability at 10 µM (K562 [5]) [%] | viability at 10 µM (MCF7 [6]) [%] | Activity (PC-3 [10]) [%] | Activity (PC-3 [11]) [%] | Activity (PC-3 [12]) [%] | Activity (PC-3 [13]) [%] | Activity (PC-3 [14]) [%] | Activity (PC-3 [15]) [%] | Activity (PC-3 [19]) [%] | Activity (PC-3 [20]) [%] | Activity (PC-3 [21]) [%] | Activity (PC-3 [22]) [%] | Activity (PC-3 [23]) [%] | Activity (PC-3 [24]) [%] | further results
CC[C@H](/C=C/[C@@H](C)[C@H]1CC[C@H]2[C@@H]3CC=C4C[C@@H](O)CC[C@]4(C)[C@H]3CC[C@]12C)C(C)C [STIGMASTEROL] | 18.3 | 22.7 | 11.1 | 21.4 | 60 | 43 | 68 | 2.3 | 3.77 | 1.51 | 2.73 | 5.42 | 2.07 | 51.41 | 30.4 | 18.19 | 50.58 | 36.4 | 21.03 | Activity (PC-3 [7]): 2.78%; Activity (PC-3 [8]): 3.18%; Activity (PC-3 [9]): 1.05%; Activity (PC-3 [16]): 52.07%; Activity (PC-3 [17]): 26.9%; Activity (PC-3 [18]): 21.03%
COc1cccc2c1C(=O)c1c(O)c3c(c(O)c1C2=O)C[C@@](O)(C(=O)CO)C[C@@H]3O[C@H]1C[C@H](N)[C@H](O)[C@H](C)O1 [DOXORUBICIN] | 8.46 | 13.2 | 3.79 | 1.37 | – | – | – | – | – | – | – | – | – | – | – | – | – | – | – | –
C/C=C1\C(=O)C[C@H]2[C@@H]3CCC4=CC(=O)CC[C@]4(C)[C@H]3CC[C@]12C [GUGGULSTERONE] | – | – | – | – | 80 | 84 | 65 | – | – | – | – | – | – | – | – | – | – | – | – | –
CC[C@H](/C=C/[C@@H](C)[C@H]1CC[C@H]2[C@@H]3CC=C4C[C@@H](O)CC[C@]4(C)[C@H]3[C@H](O)C[C@]12C)C(C)C | 32.4 | 46.8 | 7.18 | 13.5 | 94.5 | 43 | 68 | 1.77 | 1.91 | 0.96 | 1.32 | 2.49 | 1.52 | 59.89 | 21.63 | 18.47 | 76.37 | 11.24 | 12.39 | Activity (PC-3 [25]): 1.14%; Activity (PC-3 [26]): 2.95%; Activity (PC-3 [27]): 1.41%; Activity (PC-3 [28]): Dose-dependent effect; Activity (PC-3 [29]): 70.27%; Activity (PC-3 [30]): 16.4%; Activity (PC-3 [31]): 13.33%
